Measurements reported in patent US11254663B2 (BRISTOL-MYERS SQUIBB COMPANY, priority 2019, dated 2022).
pEC50: −log10 of the molar value.

target: FXR (Homo sapiens (Human), UniProt Q96RI1); assay: transient human FXR/Gal4-luciferase reporter assay; assay type: cell-based; conditions: Gal4-hFXR fusion construct, HEK293 reporter cells; response relative to 8 μM GW-4064
Method in brief: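 HEK293 cells stably carrying a 5×Gal4 response element–firefly luciferase reporter were transiently transfected overnight with a Gal4 DBD–human FXR LBD fusion plasmid. Compound was added in DMSO and cells were incubated overnight at 37 °C, 5% CO2. Activity was read as Steady-Glo luminescence.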

FXR, sequence (Q96RI1 262-486): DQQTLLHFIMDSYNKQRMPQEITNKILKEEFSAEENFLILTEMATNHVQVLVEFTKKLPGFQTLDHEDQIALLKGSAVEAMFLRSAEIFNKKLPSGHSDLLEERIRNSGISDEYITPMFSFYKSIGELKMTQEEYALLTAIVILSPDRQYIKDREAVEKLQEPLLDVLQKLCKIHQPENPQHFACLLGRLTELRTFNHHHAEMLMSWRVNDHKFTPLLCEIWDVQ

pEC50	Compound
7.32	CC(C)(C#N)Oc1ccc(-c2cc(N(CC34CCC(c5noc(C(C)(C)F)n5)(CC3)CC4)C(=O)[C@H]3C[C@](O)(C(F)(F)F)C3)ccc2F)cc1 [Example 582, (cis)-N-(4′-((2-cyanopropan-2-yl)oxy)-6-fluoro-[1,1′-biphenyl]-3-yl)-N-((4-(5-(2-fluoropropan-2-yl)-1,2,4-oxadiazol-3-yl)bicyclo[2.2.2]octan-1-yl)methyl)-3-hydroxy-3-(trifluoromethyl)cyclobutane-1-carboxamide]
7.31	CC(C)(C#N)Oc1ccc(-c2cccc(N(CC34CCC(c5noc(C6(F)CC6)n5)(CC3)CC4)C(=O)C3CC(O)(C(F)(F)F)C3)c2)cc1 (stereo not drawn) [Example 583, (cis)-N-(4′-((2-cyanopropan-2-yl)oxy)-[1,1′-biphenyl]-3-yl)-N-((4-(5-(1-fluorocyclopropyl)-1,2,4-oxadiazol-3-yl)bicyclo[2.2.2]octan-1-yl)methyl)-3-hydroxy-3-(trifluoromethyl)cyclobutane-1-carboxamide]
7.51	CC(C)Oc1ccc(-c2cccc(N(CC34CCC(c5noc(C(C)(C)F)n5)(CC3)CC4)C(=O)OC(C)(C)C(F)(F)F)c2)cc1 [Example 584, 1,1,1-trifluoro-2-methylpropan-2-yl ((4-(5-(2-fluoropropan-2-yl)-1,2,4-oxadiazol-3-yl)bicyclo[2.2.2]octan-1-yl)methyl)(4′-isopropoxy-[1,1′-biphenyl]-3-yl)carbamate]
7.74	CC(C)(O)c1ccc(-c2cccc(N(CC34CCC(c5noc(C(C)(F)F)n5)(CC3)CC4)C(=O)C34CC(C#N)(C3)C4)c2)cc1 [Example 585, 3-cyano-N-((4-(5-(1,1-difluoroethyl)-1,2,4-oxadiazol-3-yl)bicyclo[2.2.2]octan-1-yl)methyl)-N-(4′-(2-hydroxypropan-2-yl)-[1,1′-biphenyl]-3-yl)bicyclo[1.1.1]pentane-1-carboxamide]
7.44	CC(C)Oc1ccc(-c2cc(N(CC34CCC(c5noc(C6(F)CC6)n5)(CC3)CC4)C(=O)NC(C)(C)C)ccc2F)cc1 [Example 586, 3-(tert-butyl)-1-(6-fluoro-4′-isopropoxy-[1,1′-biphenyl]-3-yl)-1-((4-(5-(1-fluorocyclopropyl)-1,2,4-oxadiazol-3-yl)bicyclo[2.2.2]octan-1-yl)methyl)urea]
7.38	CC(C)(F)c1nc(C23CCC(CN(c4cccc(C5=CCC(C(C)(C)O)CC5)c4)C(=O)[C@H]4C[C@](O)(C(F)(F)F)C4)(CC2)CC3)no1 (stereo partly drawn) [Example 587, (cis)-N-((4-(5-(2-fluoropropan-2-yl)-1,2,4-oxadiazol-3-yl)bicyclo[2.2.2]octan-1-yl)methyl)-3-hydroxy-N-(4′-(2-hydroxypropan-2-yl)-2′,3′,4′,5′-tetrahydro-[1,1′-biphenyl]-3-yl)-3-(trifluoromethyl)cyclobutane-1-carboxamide]
6.40	CC(C)(F)c1nc(C23CCC(CN(c4cccc(C5=CCOCC5)c4)C(=O)[C@H]4C[C@](O)(C(F)(F)F)C4)(CC2)CC3)no1 [Example 588, (cis)-N-(3-(3,6-dihydro-2H-pyran-4-yl)phenyl)-N-((4-(5-(2-fluoropropan-2-yl)-1,2,4-oxadiazol-3-yl)bicyclo[2.2.2]octan-1-yl)methyl)-3-hydroxy-3-(trifluoromethyl) cyclobutane-1-carboxamide]
7.96	CC(C)(F)c1nc(C23CCC(CN(c4cccc(C5=CC6(C5)CC(C(C)(C)O)C6)c4)C(=O)[C@H]4C[C@](O)(C(F)(F)F)C4)(CC2)CC3)no1 (stereo partly drawn) [Example 590, (cis)-N-((4-(5-(2-fluoropropan-2-yl)-1,2,4-oxadiazol-3-yl)bicyclo[2.2.2]octan-1-yl)methyl)-3-hydroxy-N-(3-(6-(2-hydroxypropan-2-yl)spiro[3.3]hept-1-en-2-yl)phenyl)-3-(trifluoromethyl)cyclobutane-1-carboxamide]
7.11	CC(C)(F)c1nc(C23CCC(CN(C(=O)OC(C)(C)C(F)(F)F)c4cccc(-c5ccc(C6(C#N)CC6)c(F)c5)c4)(CC2)CC3)no1 [Example 591, 1,1,1-trifluoro-2-methylpropan-2-yl (4′-(1-cyanocyclopropyl)-3′-fluoro-[1,1′-biphenyl]-3-yl)((4-(5-(2-fluoropropan-2-yl)-1,2,4-oxadiazol-3-yl)bicyclo[2.2.2]octan-1-yl)methyl) carbamate]
6.01	CC(C)(F)c1nc(C23CCC(CN(c4cccc(N5CC6(COC6)C5)c4)C(=O)[C@H]4C[C@](O)(C(F)(F)F)C4)(CC2)CC3)no1 [Example 592, (cis)-N-(3-(2-oxa-6-azaspiro[3.3]heptan-6-yl)phenyl)-N-((4-(5-(2-fluoropropan-2-yl)-1,2,4-oxadiazol-3-yl)bicyclo[2.2.2]octan-1-yl)methyl)-3-hydroxy-3-(trifluoromethyl)cyclobutane-1-carboxamide]
6.25	CC(C)(O)c1ccc(-c2cccc(N(CC34CCC(c5noc(C(C)(C)F)n5)(CC3)CC4)C(=O)[C@H]3C[C@](O)(C(F)(F)F)C3)c2)nn1 [Example 593, (cis)-N-((4-(5-(2-fluoropropan-2-yl)-1,2,4-oxadiazol-3-yl)bicyclo[2.2.2]octan-1-yl)methyl)-3-hydroxy-N-(3-(6-(2-hydroxypropan-2-yl)pyridazin-3-yl)phenyl)-3-(trifluoromethyl)cyclobutane-1-carboxamide]
5.74	CC(C)(F)c1nc(C23CCC(CN(C(=O)C45CC(F)(C4)C5)c4cccc(-c5cn[nH]c(=O)c5)c4)(CC2)CC3)no1 [Example 594, 3-fluoro-N-((4-(5-(2-fluoropropan-2-yl)-1,2,4-oxadiazol-3-yl)bicyclo[2.2.2]octan-1-yl)methyl)-N-(3-(6-oxo-1,6-dihydropyridazin-4-yl)phenyl)bicyclo[1.1.1]pentane-1-carboxamide]
7.19	CC(C)(O)c1ccc(-c2cccc(N(CC34CCC(c5noc(C(C)(C)F)n5)(CC3)CC4)C(=O)[C@H]3C[C@](O)(C(F)(F)F)C3)n2)cc1 [Example 595, (cis)-N-((4-(5-(2-fluoropropan-2-yl)-1,2,4-oxadiazol-3-yl)bicyclo[2.2.2]octan-1-yl)methyl)-3-hydroxy-N-(6-(4-(2-hydroxypropan-2-yl)phenyl)pyridin-2-yl)-3-(trifluoromethyl)cyclobutane-1-carboxamide]
6.49	CCOc1ncc(-c2cc(N(CC34CCC(c5noc(C(C)(C)C)n5)(CC3)CC4)C(=O)C34CC(F)(C3)C4)ccn2)cn1 [Example 596, N-((4-(5-(tert-butyl)-1,2,4-oxadiazol-3-yl)bicyclo[2.2.2]octan-1-yl)methyl)-N-(2-(2-ethoxypyrimidin-5-yl)pyridin-4-yl)-3-fluorobicyclo[1.1.1]pentane-1-carboxamide]
6.65	CC(C)(C)c1nc(C23CCC(CN(C(=O)C45CC(F)(C4)C5)c4ccnc(-c5cnc(C6CC6)nc5)c4)(CC2)CC3)no1 [Example 597, N-((4-(5-(tert-butyl)-1,2,4-oxadiazol-3-yl)bicyclo[2.2.2]octan-1-yl)methyl)-N-(2-(2-cyclopropylpyrimidin-5-yl)pyridin-4-yl)-3-fluorobicyclo[1.1.1]pentane-1-carboxamide]
7.54	CC(C)(C#N)OC(=O)N(CC12CCC(c3noc(C(C)(C)F)n3)(CC1)CC2)c1cccc(-c2ccc(C(C)(C)O)cc2)c1 [Example 598, 2-cyanopropan-2-yl ((4-(5-(2-fluoropropan-2-yl)-1,2,4-oxadiazol-3-yl)bicyclo[2.2.2]octan-1-yl)methyl)(4′-(2-hydroxypropan-2-yl)-[1,1′-biphenyl]-3-yl) carbamate]
